# Experimental data from patent US20230270731A1, “THERAPEUTIC COMPOUNDS AND COMPOSITIONS” (eXIthera Pharmaceuticals, Inc., priority 2019, published 2023).
# Like-named read-outs stand apart in the source and are kept apart here.
# Key:
# [1] = Reconstitution and reconstitution stability of the lyophilized Compound 1 drug product; assay type: physicochemical; conditions: reconstituted drug product
# Description: The lyophilized Compound 1 drug product was subjected to testing of reconstitution and to stability testing for 6 h after reconstituted with DI water VDIwater=5 mL.
# The lyophilization cake readily reconstituted within 10-20 s. The solution during reconstitution appeared quite foamy and contained many bubbles, which cleared within approximately 2 min addition of the reconstitution solution. Residual micro-bubbles on the container wall can be removed by vortexing (2 s) or sonication (2 s). […] The pH of the reconstituted solution was measured with pH=6.81; the osmolality was determined to φ=295 mOsm/kg. The reconstituted solution was practically free of particulates as determined by liquid particle counting (LPC, HIAC: Vsample=5 mL, nruns=4, 1st run discarded, fdilution=10, Vnominal, container=2 mL) with a cumulative count of 3200 particles at a size of 10 μm and 667 particles at a size of 25 μm.
# The recovery of Compound 1 was monitored for 24 h after reconstitution to test for the in-use stability of the reconstituted solution (Table 9)
# [2] = Compatibility with vials and stoppers; assay type: physicochemical
# Description: The compatibility of the reconstituted Compound 1 formulation with sterile manufacturing vials and stoppers (Table 17) was tested for a contact time of Δt=1 h at c(Compound 1, target)=10 mg/mL at ambient conditions. The average values of % recovery are relative to the reconstituted drug product that has not been in contact with the tested materials.
# [3] = Citrate and PBS vehicle formulations: pH, osmolality, concentration and recovery (HPLC); assay type: physicochemical
# Description: Two additional vehicles: sodium citrate (50 mM) and PBS (commercial) were formulated at different concentrations (Table 5, Table 6). Both vehicles at any concentration were compounded using the appropriate final sodium hydroxide concentration (0.1 M NaOH stock solution).
# The PBS vehicle was compounded to two different pH-values while the citrate vehicle was compounded at different concentrations at the same target pH and tested for its stability over the course of 24 h (rt, exclusion from light). To evaluate the potential occurrence of particles from precipitation, a filtration step (0.2 μm micro centrifugal filters) was included at each time point.
# In case of Sample #27 the amount of HCl (aq.) (0.1 M stock) added instead of the NaOH-solution was mixed with the 10×PBS buffer and added to the aqueous solution of Compound 1 in a single step.
# [4] = Compatibility with infusion vehicles (NS, D5W); assay type: physicochemical
# Description: The compatibility of the reconstituted Compound 1 formulation with two infusion vehicles, normal saline (NS) and 5% dextrose in water (D5W) was tested after Δt=4 h for two concentration (high/low) at c(Compound 1, target)=0.1 mg/mL and c(Compound 1, target)=1.0 mg/mL and at ambient conditions (Table 10). The average values of % recovery are relative to the dilution of the reconstituted drug product into DI water at to.
# [5] = tested on: blood coagulation components (Cardiopulmonary Bypass circuit); assay type: in vivo
# Description: The following parameters and endpoints were evaluated in this study: mortality, body weight, physical, clinical pathology parameters (hematology and coagulation), coagulation time, and bioanalytical parameters.
# The vehicle and test article were administered via intravenous (IV) infusion once on Day 1 for 135 minutes (initiated 30 minutes prior to starting the Cardiopulmonary Bypass (CPB) and continuing for 105 minutes of CPB). Group 2 animals received a […] IV bolus dose immediately prior to the start of IV infusion. Group 3, 4, and 5 animals received a 10 mg/kg IV bolus dose prior to the start of the IV infusion; with the CPB machine primed with test article at 10 μg/mL.
# Infusion of the Compound 1 was started 30 minutes prior to the animal being placed on the CPB pump. The CPB pump was primed with 0.9% saline.
# Venous and arterial sheaths were flushed with the Compound 1 at a concentration of 10 μg/mL. An IV bolus dose of the test article was administered immediately prior to the start of the infusion. Infusion of Compound 1 was started 30 minutes prior to the animal being placed on the CPB pump. The CPB […] was primed with 10 μg/mL of the Compound 1 prior to initiation of the CPB pump.
# An IV bolus dose of the Compound 1 was administered immediately prior to the start of the infusion. Infusion of Compound 1 was started 30 minutes prior to the animal being placed on the CPB pump.
# [6] = pH-dependent stability and pH-rate profile, 10-day, 4° C. and 40° C.; assay type: physicochemical; conditions: for stability in buffered aqueous solutions: pH=2-8, 0.1 mg/mL, 100 mM buffer, in the dark, 10 days
# Description: The stability Compound 1 was assessed over a 10-day period at several pH-values pH=2, 3, 4, 5, 6, 7, 8) and at two different temperatures (4° C., 40° C.). Samples of Compound 1 at c(Compound 1)=0.1 mg/mL were prepared in standard buffers (Table 2) at a buffer strength of c(buffer)=100 mM and incubated at either T=4° C. or T=40° C. (exclusion from light during incubation and analysis). The concentration of Compound 1 was assessed in such samples via HPLC analysis at an initial time point (to) and on days 1, 2, 3, 4, 7 and 10 (Δt=day×24 h). The pH was monitored at identical time points during the 10-day period.
# Over the 10-day period for both temperatures the pH of the sample solutions (FIG. 2A & FIG. 2B) was monitored and the recovery (R %) of Compound 1 (FIG. 3A & FIG. 3B) was calculated via:
# whereas c(Compound 1, theor.)=0.1 mg/mL and c(Compound 1, actual) is determined by HPLC analysis via integration of the Compound 1 parent peak areas.
compound,measurement,setting,value
"C[C@@H](NC(=O)N1C(=O)[C@H](Cc2ccnc(N)c2)[C@H]1C(=O)O)C1CCCCC1 [Compound 1, (2S,3R)-3-[(2-aminopyridin-4-yl)methyl]-1-{[(1R)-1-cyclohexylethyl]carbamoyl}-4-oxoazetidine-2-carboxylic acid]","Avg. c(Compound 1, FB, Obs.)",[1]; t0,9.65 mg/mL
same,pH (Meas.),[1]; t0,6.80
same,"Avg. c(Compound 1, FB, Obs.)",[1]; t = 1 h,9.47 mg/mL
same,pH (Meas.),[1]; t = 1 h,6.79
same,"Avg. c(Compound 1, FB, Obs.)",[1]; t = 2 h,9.20 mg/mL
same,pH (Meas.),[1]; t = 2 h,6.80
same,"Avg. c(Compound 1, FB, Obs.)",[1]; t = 4 h,9.19 mg/mL
same,pH (Meas.),[1]; t = 4 h,6.79
same,"Avg. c(Compound 1, FB, Obs.)",[1]; t = 6 h,9.28 mg/mL
same,pH (Meas.),[1]; t = 6 h,6.79
same,"Avg. c(Compound 1, FB, Obs.)",[1]; t = 24 h,8.99 mg/mL
same,pH (Meas.),[1]; t = 24 h,6.85
same,"Avg. c(Compound 1, FB, Obs.)","[2]; Reconst. Soln., no contact with tested materials",9.32 mg/mL
same,"Avg. c(Compound 1, FB, Obs.)","[2]; Stopper, t = 1 h, target 10 mg/mL, ambient",9.28 mg/mL
same,"Avg. c(Compound 1, FB, Obs.)","[2]; Vial, t = 1 h, target 10 mg/mL, ambient",9.28 mg/mL
same,Stability of Compound 1 in citrate buffer,"[3]; 24 h, ambient temperature",confirmed
same,Precipitation of Compound 1,"[3]; citrate buffer, within 24 h",not observed
same,"Avg. c(Compound 1, FB, Obs.)","[4]; target 0.1 mg/mL, D5W, t = 4 h, ambient",0.09 mg/mL
same,"Avg. c(Compound 1, FB, Obs.)","[4]; target 0.1 mg/mL, NS, t = 4 h, ambient",0.09 mg/mL
same,"Avg. c(Compound 1, FB, Obs.)","[4]; target 0.1 mg/mL, Water, t0",0.09 mg/mL
same,"Avg. c(Compound 1, FB, Obs.)","[4]; target 0.1 mg/mL, Water, t = 4 h, ambient",0.09 mg/mL
same,"Avg. c(Compound 1, FB, Obs.)","[4]; target 1.0 mg/mL, D5W, t = 4 h, ambient",0.92 mg/mL
same,"Avg. c(Compound 1, FB, Obs.)","[4]; target 1.0 mg/mL, NS, t = 4 h, ambient",0.92 mg/mL
same,"Avg. c(Compound 1, FB, Obs.)","[4]; target 1.0 mg/mL, Water, t0",0.92 mg/mL
same,"Avg. c(Compound 1, FB, Obs.)","[4]; target 1.0 mg/mL, Water, t = 4 h, ambient",0.92 mg/mL
same,relation between plasma concentration and aPTT,[5]; FIG. 12,correlation
same,aPTT,"[5]; all groups, following cessation of infusion and CPB","trended towards baseline values, but remained moderately prolonged"
same,prolongations in aPTT,[5]; course during infusion and CPB,persisted throughout Compound 1 infusion and CPB
same,morbidity or mortality,"[5]; dog, in vivo",not associated with any increases in morbidity or mortality
same,survival,"[5]; dog, in vivo",All animals survived
same,aPTT,"[5]; during Compound 1 infusion and prior to CPB, all animals",moderately to markedly prolonged
same,prevention of activation of blood coagulation in components of cardiopulmonary bypass,[5]; hound CPB model,successful in preventing the activation of blood coagulation
same,selectivity of anticoagulant effects,"[5]; hound CPB model, coagulation parameters",selective to inhibition of activated partial thromboplastin time (aPTT)
same,pressure gradient across the membrane oxygenator,"[5]; multiple doses, IV infusion, CPB run",stayed consistent through the entire run
same,precipitation of the drug compound,"[6]; 0.1 mg/mL, pH 2-8, 10 days",no precipitation
same,stability/pH-correlation,"[6]; pH 2-8, 10 days",more stable towards a low pH and less stable towards a higher pH
same,stability in buffered aqueous solutions,[6]; 4° C.,stable
same,stability in buffered aqueous solutions,[6]; 40° C.,significant degradation
